This is an account of results in patent publication US20110281945A1, “GASTRIC ACID SECRETION INHIBITOR, AND POTASSIUM CHANNEL INHIBITOR” (priority 2009, published 2011).

The subject of assay [1] is Cl^− secretion. In words: Short-circuit current (Isc) measurement with Ussing chambers, large-intestinal (cecum) mucosa specimen. Type of assay: cell-based, mouse. From the text:
A mouse was killed by cervical vertebra dislocation. After abdominal incision, the cecum was extracted. The boundary parts of the cecum with the small intestine and the large intestine were cut to extract the cecum. The cecum was cut open with scissors into a sheet. In order to completely remove the contents, the cecum was pinched with tweezers and washed with replacement fluid. Replacement fluid was placed in a petri dish covered with rubber, and the cecum was attached thereon with the serosa side up. The muscular layer was separated using tweezers while constantly aerating the replacement fluid in the petri dish with 95% O2/5% CO2 to prepare a specimen composed of the mucosa and the submucosa. This specimen was divided into four pieces for use in the experiment.
The mucosa specimen was placed between two Ussing-type chambers each having a window with an area of 0.2 cm^2 and containing 5 mL of replacement fluid. For the measurement of the electrical potential difference, a pair of calomel electrodes was connected to both chambers through 1 M KCl/2% agar salt bridges. For energization, Ag/AgCl electrodes connected through 1 M NaCl/2% agar salt bridges were installed. These electrodes were connected to a voltage clamp apparatus, and the short-circuit current (Isc) was measured. As for Isc, current flowing from the mucosa side to the serosa side was determined as being positive.
Tetrodotoxin (TTX) was administered to the serosa side to block the nerve, and then forskolin (FK) was administered to the serosa side. […] At least part of this cAMP-dependent increase in Isc is attributable to the activation of a Cl^− secretion mechanism.
Subsequently, the compound 1 was administered to the serosa side to decrease Isc (to suppress Cl^− secretion). […] Lastly, a Na^+.K^−.2Cl cotransporter inhibitor (which inhibits Cl^− secretion) was administered to the serosa side to observe a slight decrease in Isc.

In assay [2] the test system is gastric acid secretion. In words: Gastric acid secretion measurement with Ussing chambers, stomach specimen stimulated with histamine. Type of assay: cell-based, mouse. To be noted: for suppression of the gastric acid secretion rate: versus ground state; for Gastric acid secretion rate: histamine 1 mM on serosa side, 37° C. Here is the method: A mouse was killed by cervical vertebra dislocation. After abdominal incision, the stomach was extracted. The gastric acid secretion portion was cut out, washed with replacement fluid, and divided into two pieces.
The specimen was placed between two chambers facing each other and each having a window with an area of 0.2 cm^2 and containing 10 mL of replacement fluid. Decreases in pH of the replacement fluid in the chamber on the lumen side were successively measured using a pH electrode at 37° C. The gastric acid secretion rate was calculated from the decrease in pH measured after completion of the experiment and the previously measured buffer capacity of the replacement fluid. The experiment was conducted by previously administering histamine (1 mM) to the replacement fluid on the serosa side for stimulating gastric acid secretion.
L-Menthol and compound 1 were administered to the replacement fluid on the lumen side so that the final concentrations were 50 μM and 100 μM, respectively. The administration was performed using stock solutions each having a concentration of 1000 times that of the target final concentration and using DMSO as a solvent. Compound 1 and 1-menthol were administered at 20 minutes and at 14 minutes, respectively, from the start of the experiment.

`CCS(=O)(=O)N(C)[C@H]1c2cc(C#N)ccc2OC(C)(C)[C@@H]1O` (racemic) [chromanol 293B]: the Isc-suppressing reaction result in assay [1] (chromanol 293B administered first, before compound 1 (Example 2, FIG. 4)) is “can be observed”.
As to `CC1CCC(C(C)C)C(OCC(C)(O)CO)C1` (stereo not shown) [Compound 1, 2-methyl-3-(menthoxy)propane-1,2-diol], the “suppression of the gastric acid secretion rate” value in assay [2] (100 μM) worked out at 75%. Also, the “Gastric acid secretion rate” value in assay [2] (Example 4, 100 μM on lumen side) worked out at 0.43 micro Eq/cm^2/h. Further, the “change in Isc (Cl^− secretion)” value in assay [1] (administered to serosa side after TTX and forskolin (Example 1, FIG. 3)) was “decrease Isc”.
For the molecule `CC(C)[C@@H]1CC[C@@H](C)C[C@H]1O` [l-Menthol], the “suppression of the gastric acid secretion rate” value in assay [2] (50 μM) came out at 57%. Further, in assay [2] (Example 5, 50 μM on lumen side), the “Gastric acid secretion rate” value stood at 0.64 micro Eq/cm^2/h. Also, the “decrease in Isc” value in assay [1] (chromanol 293B administered in advance (Examples 2 and 3, FIG. 4 and 5)) is “did not decrease the Isc”.
